Test results as given in patent US20110166066A1, “CATESTATIN (CST) AND ITS VARIANTS FOR TREATMENT OF CARDIOVASCULAR AND METABOLIC DISORDERS” (priority 2008, published 2011).
No end group written: not given here.

Key:
[1] = tested on: WT, CgA-KO and HFD fed insulin resistant mice; assay: Blood glucose / glucose tolerance tests; assay type: in vivo
From the text: Adult WT (C57BL/6) and CgA-KO mice with mixed genetic background (129svJ×C57BL/6) were used in this study. Both WT and KO mice were generated from the original founder carrying mixed genotype (50% 129svJ: 50% C57BL/6) and were maintained by brother/sister mating. Hypertensive CGA-KO mice will serve as a model for hyper insulin sensitivity. WT mice were fed 60% high fat diet (HFD) for 20 weeks. Body weight and blood glucose levels were monitored and glucose and insulin tolerance testa were performed to determine status of insulin resistance. After 20 weeks of HFD feeding mice were injected IP with catestatin (40 μg/gm body weight) twice daily for 7 days. On the 8th day, 12 hours fasted mice were subjected to glucose tolerance tests to determine their insulin sensitivity. Tissues of WT and CgA-KO mice are analyzed AMPK and eNOS signalling by immunoblotting.

[2] = tested on: Wild-type and CgA-KO mice; assay: Heart rate variability (EKG) in sedated mice; assay type: in vivo
Procedure: Animals. Six Wild-type and seven CgA-KO mice were used in this study (see example 1 for the details).
Mice were sedated by an intraperitoneal injection of a 1 μl solution per gm body weight, containing Ketamine (100 mg/ml)+Xylazine (20 mg/ml) and Acepromazine (10 mg/ml). Mice were gently strapped onto the surgical table in a fixed supine position with silk tape. Body temperature was continuously monitored on an analog thermometer, model 44TA (YSI, Ohio) using a rectal probe, and maintained between 36.5 and 38.5° C. throughout the experiment using a controlled heating box. The analog output signal fed into the chart recorder (AD Instruments, Colorado) and suitably amplified. The adequacy of sedation was regularly verified by absence of vibrissae twitching and withdrawal reflex to a noxious toe-pinch and was supplemented intraperitoneally as needed. Animals breathed ambient air spontaneously throughout the experimental run. Investigational agent, a nicotinic cholinergic receptor antagonist (8), CST was dissolved in distilled water and injected intraperitoneally at a volume of 70 μl from a 1 mM working solution.
EKG electrodes were attached to all four limbs (incl. reference electrode) via 30G stainless steel hypodermic needles (Popper & Sons, New York) so as to record standard bipolar Einthoven derivation (lead I, II and III) EKG signals. The EKG signals were bandpass-filtered between 0.1 and 3 kHz with a notch filter set at 60 Hz, and sampled at 2 kHz. The voltage output fed into a data acquisition system (PowerLab-8, AD Instruments) for eventual off-line measurements and analysis by chart and scope (Labchart 6) software. Heart rate and rhythm were also monitored continuously on an oscilloscope (Tektronix 5113, Oregon) throughout the experiment.
EKG traces were edited using the Chart® software package. High frequency noise from the EKG was removed using a 45 Hz low-pass filter to enable detection of the R-waves, whenever appropriate. A threshold electrical potential value was set for each trace and the post-threshold maximum was taken as the R-wave. Each trace was visually inspected for any undetected R-waves and these were manually inserted, while incorrectly detected R-waves or non-normal beats such as extrasystoles were deleted. Time and frequency domain analysis of HRV was performed using fast Fourier-transformation with a Hanning window. Spectral power was calculated on 50% overlapped blocks on sequences of 1024 points (beats). Time-domain parameters recorded or calculated included: mean R-R interval (in ms) [i.e., NN interval, i.e., normal-to-normal intervals]; standard deviation of all normal R-R interval (SDNN, in ms), reflecting total autonomic variability; square root mean of squared differences between adjacent normal R-R intervals (RMSSD), an index for short-term variations in inter-beat intervals, primarily of parasympathetic nature; and percentage of normal consecutive inter-beat intervals differing by >7 ms (NN7%), reflecting cardiac parasympathetic tone, were calculated directly from the sequence of interval times. NN7 is a murine-adjusted value based on PNN50 determined for humans (32). The mean HR was calculated as the mean sequence of reciprocals of the interval times. For non-linear measurements on the return map of R-R intervals (Lorenz plot), the images acquired by the chart software were imported into Image J (National Institutes of Health, Bethesda) for evaluating point dispersion of S1 and S2 (see below). The width and length of the dispersion of data in Lorenz plots reflects the level of short- and long-term beat-to-beat variability, respectively. The different frequency domain measures of HRV were computed using cut-off frequencies for power in the very low frequency (VLF), low-frequency range (LF) and high-frequency range (HF) based on human studies multiplied by a factor of ten for HR adjustment (the approximate ratio between murine and human HR) (33). […]

CgA null mice = conditions: pre-treatment; cited from earlier work
ECs = assay: In-vitro angiogenic effects on ECs (migration, proliferation, matrigel assay); assay type: cell-based

SSMKLSFRARAYGFRGPGPQL [WT-CST, catestatin]
Peak blood glucose level ([1]; HFD fed insulin resistant mice, 40 μg/gm IP twice daily 7 days): reduced
Blood glucose level ([1]; WT and CgA-KO mice): raised
Reduction of blood glucose level (glucose tolerance tests) ([1]; insulin-resistant HFD mice): 15-20%
Increased baseline heart rate ([2]; CgA KO mice, parenteral CST): rescued
HRV VLF power ([2]; KO mice): 2.899±1.05 ln ms^2
Time-domain parameters of HRV (SDNN, NN7%, RMSSD) ([2]; KO mice): reversed
HRV VLF power ([2]; WT mice): 2.468±0.69 ln ms^2
Short-term and long-term variability of HRV (Lorenz analysis) ([2]; mouse, in vivo): marked improvements
Spectral peak positions ([2]; mouse, in vivo): not visibly altered
High blood pressure in CgA null mice (CgA null mice): lowers the high blood pressure in CgA null mice to normal levels
Concentration of maximal function (ECs): 1 nM
Direct effects on ECs (ECs): exerts several direct effects on ECs including EC migration and proliferation
MAPK signaling pathway in ECs (ECs): induced activation of MAPK signaling pathway
Angiogenic effects at higher concentration (ECs; 100 nM, EC migration, proliferation, in-vitro matrigel assay): angiogenic effects were still observed
